pKi: −log10 of the molar value.
Assays:
[1] = molecular target: human GABAA α5β2γ1 receptor (Homo sapiens (Human), UniProt P31644+Q8N1C3); experiment: Radioligand binding assay, competition for [3H]RO7239181, γ1-containing GABAA subtypes; settings: Table 1; [3H]RO7239181 displacement, membranes from HEK293F cells, mean of two determinations
Description: The affinity of compounds at GABAA γ1 subunit-containing receptors was measured by competition for [^3H]RO7239181 (67.3 Ci/mmol; Roche) binding to membranes from HEK293F cells (ThermoFisher R79007) expressing human (transiently transfected) receptors of composition α5β2γ1, α2β2γ1, α1β2γ1. For better protein expression of the α2 subunit-containing receptors, the 28 amino acid long signal peptide (Met1 to Ala28) of the human GABAA α2 subunit was substituted by the 31 amino acid long signal peptide (Met1 to Ser31) of human GABAA α5 subunit.
Harvested pellets from HEK293F cells expressing the different GABAA receptor subtypes were resuspended in Mannitol Buffer pH 7.2-7.4 (Mannitol 0.29 M, Triethylamine 10 mM, Acetic acid 10 mM, EDTA 1 mM plus protease inhibitors (20 tablets Complete, Roche Diagnostics Cat. No. 05 056 489 001 per liter)), washed two times and then resuspended at 1:10 to 1:15 dilution in the same buffer. Cell disruption was performed by stirring the suspension in a Parr vessel #4637 at 435 psi for 15 minutes, and then the suspensions were centrifuged at 1000×g for 15 minutes at 4° C. (Beckman Avanti J-HC: rotor JS-4.2). The supernatant (S1) was transferred in a 21 Schott flask and the pellet (P1) was resuspended with Mannitol Buffer up to 175 ml. The resuspended pellet was transferred into a 250 ml Corning centrifugal beaker and centrifuged at 1500×g for 10 minutes at 4° C. (Beckman Avanti J-HC: rotor JS-4.2). The supernatant (S1) was then transferred in the 21 Schott flask and the pellet was discarded. The supernatants (S1) were centrifuged in 500 ml Beckman polypropylene centrifugal beaker at 15′000×g for 30 minutes at 4° C. (Beckman Avanti J-20 XP; rotor JLA-10.500). The pellet (P2) was resuspended with Mannitol Buffer 1:1 and frozen at −80° C. The supernatant (S2) was centrifuged in 100 ml Beckman polypropylene centrifugal tubes at 48000×g for 50 minutes at 4° C. (Beckman Avanti J-20 XP; rotor JA-18). The supernatant (S3) was discarded and the pellet (P3) was resuspended with 1:1 Mannitol Buffer. The P2 and P3 protein concentration was determined with the BIORAD Standard assay method with bovine serum albumin as standard and measured on the NANO-Drop 1000. The membrane suspension was aliquots (500 μl per tube) and stored at −80° C. until required.
Membrane homogenates were resuspended and polytronised (Polytron PT1200E Kinematica AG) in Potassium Phosphate 10 mM, KCl 100 mM binding buffer at pH 7.4 to a final assay concentration determined with a previous experiment.
Radioligand binding assays were carried out in a volume of 200 μL (96-well plates) which contained 100 μL of cell membranes, [3H]RO7239181 at a concentration of 1.5 nM (α5β2γ1) or 20-30 nM (α1β2γ1, α2β2γ1) and the test compound in the range of [0.3-10000]=10^−9 M. Nonspecific binding was defined by 10×10^−6 (α5β2γ1) and 30×10^−6 M RO7239181 and typically represented less than 5% (α5β2γ1) and less than 20% (β1β2γ1, α2β2γ1) of the total binding. Assays were incubated to equilibrium for 1 hour at 4° C. and then, membranes were filtered onto unifilter (96-well white microplate with bonded GF/C filters preincubated 20-50 minutes in 0.3% Polyethylenimine) with a Filtermate 196 harvester (Packard BioScience) and washed 4 times with cold Potassium Phosphate 10 mM pH 7.4, KCl 100 mM binding buffer. After anhydrousing, filter-retained radioactivity was detected by liquid scintillation counting. Ki values were calculated using Excel-Fit (Microsoft) and are the means of two determinations.
Representative test results, obtained by the above described assay measuring binding affinity to HEK293 cells expressing human (h) receptors, are shown in the Table 1.

[2] = molecular target: human GABAA α1β2γ1 receptor (Homo sapiens (Human), UniProt P14867+Q8N1C3); experiment: as above; settings: Table 1; [3H]RO7239181 displacement, membranes from HEK293F cells, mean of two determinations

| Structure (SMILES) | pKi [1] | pKi [2] |
| --- | --- | --- |
| C[C@@H]1N=C(c2c(F)cccc2F)c2c(cnc(C(F)(F)F)c2Cl)-n2nc(C(=O)NC[C@@H](C)O)nc21 [Example 16, (7S)-11-chloro-9-(2,6-difluorophenyl)-N-[(2R)-2-hydroxypropyl]-7-methyl-12-(trifluoromethyl)-2,3,5,8,13-pentazatricyclo[8.4.0.02,6]tetradeca-1(10),3,5,8,11,13-hexaene-4-carboxamide] | 8.39 | 6.80 |
| Cc1nnc2n1-c1cnc(C(F)(F)F)c(Cl)c1C(c1c(F)cccc1Cl)=N[C@H]2C [Example 17, (7S)-11-chloro-9-(2-chloro-6-fluoro-phenyl)-3,7-dimethyl-12-(trifluoromethyl)-2,4,5,8,13-pentazatricyclo[8.4.0.02,6]tetradeca-1(10),3,5,8,11,13-hexaene] | 8.42 | 7.46 |
| C[C@@H]1N=C(c2c(F)cccc2F)c2c(cnc(C(F)(F)F)c2Cl)-n2cc(C(=O)NCCO)nc21 [Example 19, (7S)-11-chloro-9-(2,6-difluorophenyl)-N-(2-hydroxyethyl)-7-methyl-12-(trifluoromethyl)-2,5,8,13-tetrazatricyclo[8.4.0.02,6]tetradeca-1(10),3,5,8,11,13-hexaene-4-carboxamide] | 8.42 | 7.31 |

From patent US20240270744A1 (Hoffmann-La Roche Inc., priority 2021, published 2024)
